Measurements as given in patent US20120232127A1, “REGULATION OF NEUROTRANSMITTER RELEASE THROUGH ANION CHANNELS” (KOREA INSTITUTE OF SCIENCE AND TECHNOLOGY, priority 2008, published 2012).
“Also recorded” adds a separate entry of the source.

How the values were obtained:
[1] = system: intracellular Ca2+ in cultured astrocytes; assay: Ca2+ imaging of TFLLR-induced [Ca2+]i transient in cultured astrocytes; assay type: cell-based, mouse
Method: (§1) The External solution was comprised of (in mM) 150 NaCl, 10 HEPES, 3 KCl, 2 CaCl2, 2 MgCl2, 5.5 glucose, at pH 7.3 (˜320 mOsm). For voltage clamp recordings, the internal solution contained 25 μg/ml gramicidin D and (in mM) 75 Cs2SO4, 10 NaCl, 0.1 CaCl2, and 10 HEPES, at pH 7.1 (˜310 mOsm). For current clamp recordings, the internal solution contained 25 μg/ml gramicidin D and (in mM) 75 K2SO4, 10 KCl, 0.1 CaCl2, and 10 HEPES, at pH 7.1 (˜310 mOsm). Pipette resistances ranged from 5 to 8 MΩ. For perforated patch clamp, it took 20 to 30 min to achieve acceptable perforation, with final series resistances ranging from 15 to 40 MΩ.
(§2) To test if activation of PAR1 by its specific agonist (e.g., TFLLR) causes any change in membrane conductance that might contribute to glutamate release from astrocytes, the whole cell currents and intracellular Ca^2+ responses in cultured astrocytes under gramicidin-D perforated patch configuration were simultaneously recorded (FIG. 1a). This technique minimized dialysis of intracellular ions.

[2] = system: Ca2+-activated anion channels (CAACs); assay: Gramicidin-D perforated patch clamp of TFLLR-induced inward current in cultured astrocytes; assay type: cell-based, mouse
Method: as §1, §2

[3] = system: glutamate release from cultured astrocytes; assay: TFLLR-evoked efflux of radiotracer from [3H]-glutamate-loaded cultures; assay type: cell-based
[4] = target: T1, Ca2+-activated anion channels (CAACs) (Mus musculus, UniProt O88870, R255K); assay: Gramicidin-D perforated patch clamp of TFLLR-induced inward current in cultured astrocytes; assay type: cell-based; settings: for block of TFLLR-induced current: 100 μM blocker, cultured astrocytes; for block of the current by CAACs: astrocytes
T1 construct: endogenous in cells; host or cells: cultured mouse cortical astrocytes
T1 sequence (O88870 1-551 R255K): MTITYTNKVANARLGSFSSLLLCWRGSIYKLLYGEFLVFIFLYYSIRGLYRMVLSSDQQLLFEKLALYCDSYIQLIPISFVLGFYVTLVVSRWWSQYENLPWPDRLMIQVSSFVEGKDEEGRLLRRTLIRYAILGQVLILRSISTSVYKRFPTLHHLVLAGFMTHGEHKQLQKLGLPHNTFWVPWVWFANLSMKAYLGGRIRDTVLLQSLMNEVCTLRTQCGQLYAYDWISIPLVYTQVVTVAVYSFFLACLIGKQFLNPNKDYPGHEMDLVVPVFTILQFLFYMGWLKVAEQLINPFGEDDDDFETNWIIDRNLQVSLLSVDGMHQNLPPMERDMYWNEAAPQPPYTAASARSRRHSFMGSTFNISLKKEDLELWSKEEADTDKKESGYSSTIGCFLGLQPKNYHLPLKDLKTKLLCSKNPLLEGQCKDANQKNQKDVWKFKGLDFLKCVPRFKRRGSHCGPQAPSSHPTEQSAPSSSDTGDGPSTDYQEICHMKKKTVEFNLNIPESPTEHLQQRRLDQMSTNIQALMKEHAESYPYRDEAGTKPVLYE
Method: as §1, §2

astrocytic CAACs = target: T2, astrocytic CAACs (Mus musculus, UniProt O88870, R255K); assay: Whole-cell patch clamp, astrocytic CAAC current directly activated by 4.5 μM internal Ca2+; assay type: cell-based; settings: internal solution with 4.5 μM Ca2+
T2 construct: endogenous in cells; host or cells: cultured mouse cortical astrocytes
T2 sequence (O88870 1-551 R255K): T1 sequence (O88870 1-551 R255K)
Method: Patch pipettes which have 3-6MΩ of resistance are filled with the standard intracellular solution. Current voltage curves were established by applying 100- or 200-ms-duration voltage ramps from −100 to +100 mV. […]. Data were acquired by an Axopatch 200A amplifier controlled by Clampex 9.0 via a Digidata 1322A data acquisition system (Molecular Devices). Experiments were conducted at room temperature (20˜24° C.). The standard pipette solution was comprised of (in mM) 146 CsCl, 2 MgCl2, 5 (Ca^2+)-EGTA, 8 HEPES, and 10 sucrose, at pH 7.3, adjusted with CsOH. The concentration of free [Ca^2+]i in the solution was determined (Kuruma, A. & Hartzell, H. C. Bimodal control of a Ca(^2+)-activated Cl(−) channel by difference Ca(^2+) signals. J Gen Physiol 115, 59-80 (2000), which is hereby incorporated by reference for all purposes as if fully set forth herein). The standard extracellular solution was comprised of (in mM) 140 NaCl, 5 KCl, 2 CaCl2, 1 MgCl2, 15 glucose, and 10 HEPES, with pH 7.3 as adjusted using NaOH.
Because CAACs can permeate large anions and could be directly activated by applying internal solutions with known Ca^2+ concentrations, it was tested whether astrocytic CAACs can permeate glutamate by directly applying internal solutions containing 4.5 μM of Ca^2+ at which level CAACs are maximally activated (FIG. 10).

[5] = target: T3, astrocytic CAAC / mBest1 channel (glutamate release) (Mus musculus, UniProt O88870, R255K); assay: Sniffer patch: astrocyte to GluR1 (L497Y)-expressing HEK293T cell pairs, TFLLR-induced glutamate release; assay type: cell-based; settings: sniffer patch, cultured astrocytes as glutamate source
T3 construct: endogenous in cells; host or cells: cultured mouse cortical astrocytes
T3 sequence (O88870 1-551 R255K): T1 sequence (O88870 1-551 R255K)
Method: The sniffer patch technique, which is used for determining whether or not one is permeable to glutamate, was performed as described in Lee, C. J. et al. Astrocytic control of synaptic NMDA receptors. J Physiol 581, 1057-81 (2007), which is hereby incorporated by reference for all purposes as if fully set forth herein.
2. In experiments using astrocyte-HEK293T cell pairs, the sniffer patch techniques used naïve, scrambled- or mBest1-specific shRNA expressing (with GFP) astrocytes as a glutamate source; and GluR1 (L497Y) expressing HEK293T cells (with DsRED) as a detector. After obtaining gigaohm sealing, GluR1 (L497Y)-expressing cell was firstly ruptured, and then counterpart astrocytes were pressure-applied with 500 uM of TFLLR to evoke an increase in astrocytic intracellular Ca^2+ and resulting glutamate release onto the adjacent HEK293T cells.
GluR1LY-expressing detector cells were patched with the pipette solution pH 7.3 containing 110 mM CsGluconate, 30 mM CsCl, 5 mM HEPES, 4 mM NaCl, 2 mM MgCl2, 5 mM EGTA, and 1 mM CaCl2. The percentage of GluR1 (L497Y)-mediated current to the full activation level was analyzed by dividing the current amplitude of GluR1 (L497Y) current obtained through sniffer patch measurement by that of fully activated GluR1 (L497Y) current in the same cells.
The glutamate release through astrocytic CAACs was examined by using “sniffer-patch” technique and recording real-time glutamate release from cultured astrocytes (FIG. 10a). Using this technique, the present inventors observed that TFLLR-induced astrocytic glutamate release into an adjacent HEK293T cells expressing the non-desensitizing AMPA receptor subunit GluR1 (L497Y) mutant evoked an inward current sensitive to AMPA receptor antagonists, which is interpreted to reflect release of glutamate. The effects of TFLLR on current responses in transfected HEK293T cells was blocked by the treatment of niflumic acid (% block by niflumic acid=66.6±5.7%, FIGS. 10d to 10f), which is consistent with the idea that astrocytic CAAC is permeable to glutamate.

[6] = system: CAACs expressed in Xenopus laevis oocytes; settings: read-out: reported IC50 value for CAACs expressed in Xenopus laevis oocytes; cited from earlier work
NMDA receptor (NMDAR) = assay: Voltage clamp of NMDAR-mediated mEPSC decay and NMDAR-mediated current
[7] = target: T4, Ca2+-activated anion channels (CAACs) (Mus musculus, UniProt O88870); assay: Gramicidin-D perforated patch clamp of TFLLR-induced inward current in cultured astrocytes; assay type: cell-based; settings: cultured astrocytes, voltage-independent block
T4 construct: endogenous in cells; host or cells: cultured mouse cortical astrocytes
T4 sequence (O88870 1-551 R255K): T1 sequence (O88870 1-551 R255K)
Method: as §1, §2

[8] = system: evoked EPSPs in hippocampal slices; assay: Current clamp of evoked EPSPs, Schaffer collateral to CA1 pyramidal neuron synapse in hippocampal slices; settings: 30 μM niflumic acid
Method: To assess whether CAAC-dependent glutamate release in astrocytes occurs and enhances synaptic potentials in vivo, a series of current clamp experiments were carried out to directly measure the effects of CAAC-dependent glutamate release on the evoked EPSPs (eEPSPs) of the Schaffer collateral to CA1 pyramidal neuron synapse in hippocampal slices. Under the similar recording conditions as previously described in ‘Lee, C. J. et al. Astrocytic control of synaptic NMDA receptors.

[9] = U73122 2 μM, preincubation 10 min
[10] = BAPTA-AM, 50 μM preincubation for 30 min
[11] = thapsigargin 100 nM, preincubation 5 min
[12] = thapsigargin 100 nM, preincubation 5 min, listed as Thapsigargin

Compound: COc1ccc2c(c1)CC[C@@H]1[C@@H]2CC[C@]2(C)[C@@H](NCCCCCCN3C(=O)C=CC3=O)CC[C@@H]12 [U73122]
- effect on TFLLR-induced [Ca2+]i increase [1, 9]: reduced; also recorded: inhibition
- effect on TFLLR-induced inward current [2, 9]: reduced; also recorded: inhibition

Compound: O=C(O)c1ccccc1Nc1cccc(C(F)(F)F)c1 [flufenamic acid]
- inhibition of TFLLR-evoked efflux of radiotracer from [3H]-glutamate-loaded cultures [3]: 57%
- block of TFLLR-induced current [4]: blocked

Compound: CC(=O)OCOC(=O)CN(CC(=O)OCOC(C)=O)c1ccccc1OCCOc1ccccc1N(CC(=O)OCOC(C)=O)CC(=O)OCOC(C)=O [BAPTA-AM]
- effect on TFLLR-induced [Ca2+]i transient [1, 10]: eliminated; also recorded: inhibition
- effect on TFLLR-induced current [2, 10]: eliminated; also recorded: inhibition

Compound: chlorotoxin
- block of the current by CAACs ([4]; 1 μM): did not block

Compound: C/C=C(/C)C(=O)O[C@H]1C(C)=C2[C@H]([C@@H]1OC(=O)CCCCCCC)[C@@](C)(OC(C)=O)C[C@H](OC(=O)CCC)[C@@]1(O)[C@H]2OC(=O)[C@@]1(C)O [thapsigargin]
- effect on TFLLR-induced [Ca2+]i increase [1, 11]: reduced
- effect on TFLLR-induced [Ca2+]i increase [1, 12]: inhibition
- effect on TFLLR-induced inward current [2, 11]: reduced
- effect on TFLLR-induced inward current [2, 12]: inhibition

Compound: O=C(O)c1cccnc1Nc1cccc(C(F)(F)F)c1 [niflumic acid]
- block of directly activated non-desensitizing CAAC current (astrocytic CAACs): readily blocked
- % block of TFLLR effect on current responses in GluR1 (L497Y)-transfected HEK293T cells [5]: 66.6±5.7%
- IC50 [6]: 10.1 µM
- effect on NMDAR-mediated current amplitude (NMDA receptor (NMDAR)): minimally affected
- TFLLR-induced prolongation of slow NMDAR-mediated component of mEPSC decay (NMDA receptor (NMDAR); voltage clamp): sensitive
- effect on TFLLR-induced increases in intracellular Ca2+ ([1]; 100 μM niflumic acid, n=5): attenuated but did not completely block
- inhibition of TFLLR-evoked efflux of radiotracer from [3H]-glutamate-loaded cultures [3]: 69%
- block of TFLLR-induced current [4]: blocked; also recorded: inhibited
- block of TFLLR-induced current ([4]; listed as Niflumic acid): blocked
- IC50 [7]: 9.8 µM
- effect on TFLLR enhancement of eEPSP [8]: blocked; also recorded: not statistically significant

Compound: CC1(C)[C@@H](OC(=O)CCC(=O)O)CC[C@]2(C)[C@H]3C(=O)C=C4[C@@H]5C[C@@](C)(C(=O)O)CC[C@]5(C)CC[C@@]4(C)[C@]3(C)CC[C@@H]12 [carbenoxolone]
- block of the current by CAACs ([4]; 100 μM): did not block

Compound: O=C(O)c1cc([N+](=O)[O-])ccc1NCCCc1ccccc1 [NPPB, 5-nitro-2(3-phenylpropylamino)-benzoic acid]
- block of TFLLR-induced current [4]: blocked
